Experimental findings from patent US7271161B2, “Platinum complexes as antitumor agents in combination with biochemical modulation” (Board of Regents, the University of Texas System, priority 2002, dated 2007) are described below.

Like-named read-outs stand apart in the source and are kept apart here.

One assay has as its system Human 2780CP cell line. The assay can be described thus: MTT cytotoxicity assay, cisplatin-resistant ovarian 2780CP cells, with or without BSO. The assay is classed as cell-based. Set-up: key to DMF vs. 2780CP Control (Without BSO) / DMF Control / DMF +BSO (MTC): DMF = IC50 without BSO / IC50 with BSO. The note with it: for DMF vs. 2780CP +10 μM BSO: IC50 without BSO / IC50 with 10 μM BSO; for DMF vs. 2780CP +3 mM BSO (MTC): IC50 without BSO / IC50 with 3 mM BSO (MTC); for DMF vs. 2780CP Control (Without BSO): without BSO (reference); for Resistance Factor vs. 2780CP +10 μM BSO: IC50 2780CP with 10 μM BSO / IC50 A2780 without BSO; for Resistance Factor vs. 2780CP +3 mM BSO (MTC): IC50 2780CP with 3 mM BSO (MTC) / IC50 A2780 without BSO; for Resistance Factor vs. 2780CP Control (Without BSO): IC50 2780CP without BSO / IC50 A2780 without BSO. The text has this: (§1) The ovarian A2780 and 2008 cell lines are sensitive to cisplatin, while the corresponding 2780CP and 2008/C13* cell lines were selected for resistance following in vitro exposure to cisplatin. The SKOV-3 cell line was established from a patient who was resistant to cisplatin therapy and is considered a model of cisplatin resistance. The A2780 and 2780CP cells have wild-type p53 function, while SKOV-3 is devoid of p53 function. The p53 status for the 2008 and 2008/C131 cells is presently not known.
(§2) Procedure for Cytotoxic Evaluation. All cell lines are maintained in RPMI 1640 medium supplemented with 10% fetal bovine serum, 50 μg/ml penicillin, 50 μg/ml streptomycin, 100 μg/ml neomycin and 0.3 mg/ml L-glutamine. The ovarian lines also require 2 μg/ml insulin for maximal growth. Cells are grown as monolayers at 37° C. in a humidified atmosphere of 5% CO2:95% air. Cytotoxicity is determined by a standard MTT assay. Briefly, the exponentially-growing cells are trypsinized to dislodge them before use. After diluting the tumor cells to appropriate concentrations (2,000-30,000 cells/ml), 100 μl aliquots of the cell suspensions are added to each well of a 96-well microtiter plate. The cells are allowed to attach overnight, and then exposed for 24 hr to BSO at a concentration that is equal to or less than maximally tolerated concentration (MTC). At 22 hr after addition of BSO, the platinum complex is added, and 2 hr later the cells are washed and reincubated. After another 5 days, when control cells are in an exponential phase of growth, 50 μl of an MTT solution (3 mg/ml) is added to each well. Following a 3-hr incubation, the medium is removed and replaced by 50 μl of 100% DMSO to dissolve MTT formazan crystals. Plates are agitated on a plate shaker for 5 min, and absorbances are measured at 570 nm in a multiwell scanning spectrophotometer.
(§3) IC50 values, defined as the drug concentration (μM) inhibiting cell growth by 50% compared to control wells, are determined by fitting a sigmoidal curve to the data using a computer program. Resistance factor is calculated as a ratio of the IC50 against resistant cell line to the IC50 against parent cell line. The dose modification factor (DMF) is derived from a ratio of IC50 without BSO to that with BSO.

For a further assay, the system named is Human A2780 cell line. The experiment in a line: MTT cytotoxicity assay, cisplatin-sensitive ovarian A2780 cells, with or without BSO. Set-up: key to DMF vs. A2780 Control (Without BSO): DMF = IC50 without BSO / IC50 with BSO. The assay is classed as cell-based. The note with it: for DMF vs. A2780 +10 μM BSO (MTC): IC50 without BSO / IC50 with 10 μM BSO (MTC); for DMF vs. A2780 Control (Without BSO): without BSO (reference).
Source text: as §1, §2, §3

The mark [1] stands for this setting: +10 μM BSO, read-out: IC50 (μM) vs. 2780CP +10 μM BSO.
The mark [2] stands for this setting: +3 mM BSO (MTC), read-out: IC50 (μM) vs. 2780CP +3 mM BSO (MTC).
[3] abbreviates: without BSO, read-out: IC50 (μM) vs. 2780CP Control (Without BSO).
Where [4] appears, read: +10 μM BSO (MTC), 24 hr BSO, read-out: IC50 (μM) vs. A2780 +10 μM BSO (MTC).
Setting [5] is: without BSO, 2 hr platinum exposure, MTT after 5 days, read-out: IC50 (μM) vs. A2780 Control (Without BSO).

Take `[Cl][Pt]1([Cl])([Cl])([Cl])[NH][C@@H]2CCCC[C@H]2[NH]1` (racemic) [Complex 13]: the IC50 with Human 2780CP cell line (setting [1]) stood at 34.9 µM; in the assay on Human 2780CP cell line (setting [2]), 23.5 µM; with Human 2780CP cell line (setting [3]), 44.8 µM; with Human A2780 cell line (setting [4]), 4.57 µM; in the assay with Human A2780 cell line (setting [5]) it was 8.48 µM. The “DMF vs. 2780CP +10 μM BSO” value with Human 2780CP cell line is 1.28. The “DMF vs. 2780CP +3 mM BSO (MTC)” value with Human 2780CP cell line came to 1.91. The “DMF vs. 2780CP Control (Without BSO)” value with Human 2780CP cell line is recorded as 1.00. For the same molecule, the “DMF vs. A2780 +10 μM BSO (MTC)” value in the assay with Human A2780 cell line was 1.86. Further, the “DMF vs. A2780 Control (Without BSO)” value in the assay on Human A2780 cell line stood at 1.00.

In the case of `[NH2][Pt]([NH2])([Cl])[Cl]` [Complex 1], the half-maximal inhibitory concentration (IC50) in the assay on Human 2780CP cell line (setting [1]) was found to be 82 µM; with Human 2780CP cell line (setting [2]) it was 58.3 µM; in the assay with Human 2780CP cell line (setting [3]), 101 µM; with Human A2780 cell line (setting [4]), 4.25 µM; in the assay on Human A2780 cell line (setting [5]) it was 6.75 µM. Moreover, the “DMF vs. 2780CP +10 μM BSO” value in the assay with Human 2780CP cell line turned out to be 1.23. In addition, in the assay on Human 2780CP cell line, the “DMF vs. 2780CP +3 mM BSO (MTC)” value was determined as 1.73. Further, the “DMF vs. 2780CP Control (Without BSO)” value with Human 2780CP cell line is 1.00. Also, in the assay on Human A2780 cell line, the “DMF vs. A2780 +10 μM BSO (MTC)” value is listed as 1.59. Also, the “DMF vs. A2780 Control (Without BSO)” value with Human A2780 cell line came out at 1.00.

In the case of `[Cl][Pt]1([Cl])[NH][C@@H]2CCCC[C@H]2[NH]1` [Complex 2], the IC50 with Human 2780CP cell line (setting [1]) was 3.69 µM. Besides, in the assay with Human 2780CP cell line (setting [2]), the IC50 was 2.46 µM. Also, in the assay on Human 2780CP cell line, the “Resistance Factor vs. 2780CP +10 μM BSO” value stood at 6.59, the “Resistance Factor vs. 2780CP +3 mM BSO (MTC)” value came to 4.39, the “Resistance Factor vs. 2780CP Control (Without BSO)” value was found to be 8.23 and the “DMF vs. 2780CP +10 μM BSO” value stood at 1.25. Also, in the assay with Human 2780CP cell line, the “DMF vs. 2780CP +3 mM BSO (MTC)” value was 1.87 and the “DMF vs. 2780CP Control (Without BSO)” value turned out to be 1.00. The IC50 in the assay with Human 2780CP cell line (setting [3]) was found to be 4.61 µM. Also, the IC50 in the assay on Human A2780 cell line (setting [4]) came to 0.41 µM. In the assay with Human A2780 cell line, the “DMF vs. A2780 +10 μM BSO (MTC)” value amounted to 1.37 and the “DMF vs. A2780 Control (Without BSO)” value came to 1.00. For the same molecule, in the assay on Human A2780 cell line (setting [5]), the IC50 amounted to 0.56 µM.

As for `[NH2][Pt]([Cl])([Cl])[NH]C1CC1` [Complex 3], the 50% inhibitory concentration (IC50) in the assay on Human 2780CP cell line (setting [1]) stood at 62.2 µM. For the same molecule, in the assay with Human 2780CP cell line (setting [2]), the IC50 is 48.8 µM. Moreover, in the assay with Human 2780CP cell line, the “Resistance Factor vs. 2780CP +10 μM BSO” value worked out at 17.1, the “Resistance Factor vs. 2780CP +3 mM BSO (MTC)” value worked out at 13.4, the “Resistance Factor vs. 2780CP Control (Without BSO)” value is listed as 17.5 and the “DMF vs. 2780CP +10 μM BSO” value is 1.02. In the assay with Human 2780CP cell line, the “DMF vs. 2780CP +3 mM BSO (MTC)” value was 1.31 and the “DMF vs. 2780CP Control (Without BSO)” value amounted to 1.00. Further, the concentration for half-maximal inhibition (IC50) in the assay with Human 2780CP cell line (setting [3]) amounted to 63.7 µM. Moreover, in the assay on Human A2780 cell line (setting [4]), the IC50 is 3.46 µM. Further, in the assay on Human A2780 cell line, the “DMF vs. A2780 +10 μM BSO (MTC)” value is recorded as 1.05 and the “DMF vs. A2780 Control (Without BSO)” value amounted to 1.00. The IC50 in the assay with Human A2780 cell line (setting [5]) turned out to be 3.64 µM.

As to `[NH2][Pt]([Cl])([Cl])[NH]C1CCC1` [Complex 4], in the assay on Human 2780CP cell line (setting [1]), the IC50 was 16 µM. In addition, the IC50 in the assay with Human 2780CP cell line (setting [2]) came to 15.8 µM. In the assay on Human 2780CP cell line, the “Resistance Factor vs. 2780CP +10 μM BSO” value amounted to 15.5, the “Resistance Factor vs. 2780CP +3 mM BSO (MTC)” value was 15.3, the “Resistance Factor vs. 2780CP Control (Without BSO)” value is reported as 16.1 and the “DMF vs. 2780CP +10 μM BSO” value amounted to 1.04. In the assay on Human 2780CP cell line, the “DMF vs. 2780CP +3 mM BSO (MTC)” value was determined as 1.05 and the “DMF vs. 2780CP Control (Without BSO)” value was found to be 1.00. Also, the IC50 in the assay with Human 2780CP cell line (setting [3]) is 16.6 µM. Also, the IC50 in the assay with Human A2780 cell line (setting [4]) stood at 0.77 µM. In the assay with Human A2780 cell line, the “DMF vs. A2780 +10 μM BSO (MTC)” value stood at 1.34 and the “DMF vs. A2780 Control (Without BSO)” value stood at 1.00. For the same molecule, in the assay with Human A2780 cell line (setting [5]), the IC50 came to 1.03 µM.

Turning to `[NH2][Pt]([Cl])([Cl])[NH]C1CCCC1` [Complex 5, Ammine/cyclopentylamine-dichloro-platinum(II)], the IC50 in the assay on Human 2780CP cell line (setting [1]) came to 14.5 µM. The IC50 with Human 2780CP cell line (setting [2]) was 9.07 µM. Further, in the assay with Human 2780CP cell line, the “Resistance Factor vs. 2780CP +10 μM BSO” value came to 19.9, the “Resistance Factor vs. 2780CP +3 mM BSO (MTC)” value came out at 12.4, the “Resistance Factor vs. 2780CP Control (Without BSO)” value is reported as 20.8 and the “DMF vs. 2780CP +10 μM BSO” value worked out at 1.05. In addition, in the assay with Human 2780CP cell line, the “DMF vs. 2780CP +3 mM BSO (MTC)” value is on record as 1.68 and the “DMF vs. 2780CP Control (Without BSO)” value came to 1.00. Also, the IC50 with Human 2780CP cell line (setting [3]) was 15.2 µM. The IC50 in the assay on Human A2780 cell line (setting [4]) came out at 0.66 µM. For the same molecule, in the assay on Human A2780 cell line, the “DMF vs. A2780 +10 μM BSO (MTC)” value is 1.11 and the “DMF vs. A2780 Control (Without BSO)” value came out at 1.00. Moreover, the IC50 with Human A2780 cell line (setting [5]) is 0.73 µM.
